Reference: PMC3361975 (Biochemistry, 2012)
Like-named read-outs stand apart in the source and are kept apart here.

System: PTDH ortholog from Nostoc sp. 7120
Test: initial rate of NADH formation at […] nm, Michaelis-Menten fit
Format: biochemical, Nostoc sp. PCC 7120
Details: read-out: Nostoc sp. 7120, 100 mM MOPS pH 7.25, 30 °C

Km (co-substrate phosphite) [µM]	Compound	Km (co-substrate NAD+) [µM]
	O=[PH](O)O [phosphite]	20.2
10.3	NC(=O)c1ccc[n+]([C@@H]2O[C@H](COP(=O)(O)OP(=O)(O)OC[C@H]3O[C@@H](n4cnc5c(N)ncnc54)[C@H](O)[C@@H]3O)[C@@H](O)[C@H]2O)c1 [NAD^+]	
